# Measured values published in patent US20060030616A1, “Anhydride modified cantharidin analogues useful in the treatment of cancer” (priority 1998, published 2006).
# Columns and labels:
# Type in all cases: cell-based, human
# HT29 cells = assay: Checkpoint abrogation after 6 Gy radiation, flow cytometry; conditions: 12 h after drug; for Cell Cycle Distribution, G1 / Cell Cycle Distribution, G2 + M / Cell Cycle Distribution, S / Cell Cycle Distribution, sub G / Checkpoint remark: 18 h after 6Gy; for Checkpoint abrogation: HT29, 6 Gy
# Method: (§1) The cells are fixed in 70% ethanol and stored at −20° C. until analysis is performed (1-2 weeks). After fixing, the cells are pelleted and incubated in PBS containing propidium iodide ([…]) and RNase A (200 mg/ml) for at least 30 min at room temperature. The samples (2×10^4 events) are analysed using a Becton Dickson FACScan, fluorescence is collected in fluorescence detector 2 (FL2), filter 575/30 nm band pass. Cell cycle distribution is assessed using Cell Quest software (Becton Dickson).
# (§2) The ability of the protein phosphatase inhibitors to abrogate the G1 or G2 checkpoint of the cell cycle may be determined by cell cycle analysis using flow cytometry. Briefly, asynchronous cell cultures are harvested 18 h after 6 Gy irradiation and/or 12 h incubation with the protein phosphatase inhibitor. Depending upon the p53 status of the cell line, radiation treatment alone will induce arrest in either G1 and/or G2 phase of the cell cycle.
# (§3) If the protein phosphatase inhibitor abrogates the G2 checkpoint then the cells will not arrest in the G2 phase of the cell cycle and the cells will continue through the cell cycle and accumulate in the G1 phase of the cell cycle only. Similarily if the protein phosphatase inhibitors abrogates the G1 checkpoint then the cells will not arrest in the G1 phase of the cell cycle and accumulate in the G2 phase of the cell cycle only. Cell cycle analysis using propidium iodide labelling of DNA has been used extensively in our laboratory to assess the effect of specific anticancer agents that induce S-phase cell cycle arrest and apoptotic cell death (Sakoff, Ackland and Stewart, 1998). Experiments were performed on a Becton Dickinson FACScan and using Cell Quest software.
# (§4) The cells were treated with 6 Gy of radiation and then treated with cantharidin 6 h later. The ability to abrogate cell cycle arrest was assessed is 12 h after the addition of the drugs.
# HL60 cells = assay: as above; conditions: 12 h after drug; for Cell Cycle Distribution, G1 / Cell Cycle Distribution, G2 + M / Cell Cycle Distribution, S / Cell Cycle Distribution, sub G / Checkpoint remark: 18 h after 6Gy; for Checkpoint abrogation: HL60, 6 Gy
# Method: as §1, §2, §3, §4
# A2780 cells = assay: MTT cytotoxicity assay, 72 h; conditions: A2780, p53 wt; read-out: IC50 (mean ± SE) after 72 h continuous exposure
# How it was run: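 Cells plated (L1210 at 1000 cells/well, others 2000-25000 cells/well) and grown 24 h before 72 h exposure to phosphatase inhibitors over […], in triplicate. MTT formazan absorbance at 540 nm; IC50 is the concentration giving 50% growth inhibition from the day 0 to day 3 optical density difference.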
structure (smiles),measurement,setting,value
"C[C@@]12C(=O)OC(=O)[C@]1(C)[C@H]1CC[C@@H]2O1 [Cantharidin, exo.exo-2.3-dimethyl-7-oxobicyclo[2.2.1]heptane-2,3-dicarboxylic acid anhydride]","Cell Cycle Distribution, G1","HT29 cells; HT29, 1 μM",35.2 percentage of total
same,"Cell Cycle Distribution, G2 + M","HT29 cells; HT29, 1 μM",38.2 percentage of total
same,"Cell Cycle Distribution, S","HT29 cells; HT29, 1 μM",10.6 percentage of total
same,"Cell Cycle Distribution, sub G","HT29 cells; HT29, 1 μM",16.6 percentage of total
same,"Cell Cycle Distribution, G1","HT29 cells; HT29, 5 μM",38.6 percentage of total
same,"Cell Cycle Distribution, G2 + M","HT29 cells; HT29, 5 μM",46.3 percentage of total
same,"Cell Cycle Distribution, S","HT29 cells; HT29, 5 μM",10.6 percentage of total
same,"Cell Cycle Distribution, sub G","HT29 cells; HT29, 5 μM",5.3 percentage of total
same,"Cell Cycle Distribution, G1","HT29 cells; HT29, 10 μM",21.1 percentage of total
same,"Cell Cycle Distribution, G2 + M","HT29 cells; HT29, 10 μM",60.8 percentage of total
same,"Cell Cycle Distribution, S","HT29 cells; HT29, 10 μM",12.3 percentage of total
same,"Cell Cycle Distribution, sub G","HT29 cells; HT29, 10 μM",6.4 percentage of total
same,"Cell Cycle Distribution, G1","HT29 cells; HT29, 50 μM",23.0 percentage of total
same,"Cell Cycle Distribution, G2 + M","HT29 cells; HT29, 50 μM",43.1 percentage of total
same,"Cell Cycle Distribution, S","HT29 cells; HT29, 50 μM",20.7 percentage of total
same,"Cell Cycle Distribution, sub G","HT29 cells; HT29, 50 μM",14.7 percentage of total
same,Checkpoint remark,"HT29 cells; HT29, 50 μM",G1 abrogation
same,Checkpoint abrogation,HT29 cells,abrogated radiation induced G1 arrest
same,"Cell Cycle Distribution, G1","HL60 cells; HL60, 1 μM",5.2 percentage of total
same,"Cell Cycle Distribution, G2 + M","HL60 cells; HL60, 1 μM",85.8 percentage of total
same,"Cell Cycle Distribution, S","HL60 cells; HL60, 1 μM",3.0 percentage of total
same,"Cell Cycle Distribution, sub G","HL60 cells; HL60, 1 μM",6.2 percentage of total
same,"Cell Cycle Distribution, G1","HL60 cells; HL60, 5 μM",5.7 percentage of total
same,"Cell Cycle Distribution, G2 + M","HL60 cells; HL60, 5 μM",86.8 percentage of total
same,"Cell Cycle Distribution, S","HL60 cells; HL60, 5 μM",3.5 percentage of total
same,"Cell Cycle Distribution, sub G","HL60 cells; HL60, 5 μM",4.4 percentage of total
same,"Cell Cycle Distribution, G1","HL60 cells; HL60, 10 μM",5.6 percentage of total
same,"Cell Cycle Distribution, G2 + M","HL60 cells; HL60, 10 μM",85.1 percentage of total
same,"Cell Cycle Distribution, S","HL60 cells; HL60, 10 μM",4.3 percentage of total
same,"Cell Cycle Distribution, sub G","HL60 cells; HL60, 10 μM",5.3 percentage of total
same,"Cell Cycle Distribution, G1","HL60 cells; HL60, 50 μM",10.2 percentage of total
same,"Cell Cycle Distribution, G2 + M","HL60 cells; HL60, 50 μM",64.9 percentage of total
same,"Cell Cycle Distribution, S","HL60 cells; HL60, 50 μM",11.3 percentage of total
same,"Cell Cycle Distribution, sub G","HL60 cells; HL60, 50 μM",14.3 percentage of total
same,Checkpoint remark,"HL60 cells; HL60, 50 μM",Cell Death
same,Checkpoint abrogation,HL60 cells,abrogated radiation induced G1 arrest
O=C1OC(=O)C2C3C=CC(O3)C12 (centres unmarked) [MK-2],"Cell Cycle Distribution, G1","HT29 cells; HT29, 5 μM",31.8 percentage of total
same,"Cell Cycle Distribution, G2 + M","HT29 cells; HT29, 5 μM",41.3 percentage of total
same,"Cell Cycle Distribution, S","HT29 cells; HT29, 5 μM",8.7 percentage of total
same,"Cell Cycle Distribution, sub G","HT29 cells; HT29, 5 μM",17.3 percentage of total
same,"Cell Cycle Distribution, G1","HT29 cells; HT29, 50 μM",35.4 percentage of total
same,"Cell Cycle Distribution, G2 + M","HT29 cells; HT29, 50 μM",44.7 percentage of total
same,"Cell Cycle Distribution, S","HT29 cells; HT29, 50 μM",8.8 percentage of total
same,"Cell Cycle Distribution, sub G","HT29 cells; HT29, 50 μM",10.3 percentage of total
same,"Cell Cycle Distribution, G1","HT29 cells; HT29, 100 μM",40.6 percentage of total
same,"Cell Cycle Distribution, G2 + M","HT29 cells; HT29, 100 μM",45.9 percentage of total
same,"Cell Cycle Distribution, S","HT29 cells; HT29, 100 μM",9.0 percentage of total
same,"Cell Cycle Distribution, sub G","HT29 cells; HT29, 100 μM",3.5 percentage of total
same,"Cell Cycle Distribution, G1","HT29 cells; HT29, 250 μM",24.9 percentage of total
same,"Cell Cycle Distribution, G2 + M","HT29 cells; HT29, 250 μM",59.4 percentage of total
same,"Cell Cycle Distribution, S","HT29 cells; HT29, 250 μM",12.3 percentage of total
same,"Cell Cycle Distribution, sub G","HT29 cells; HT29, 250 μM",2.7 percentage of total
same,"Cell Cycle Distribution, G1","HT29 cells; HT29, 500 μM",24.1 percentage of total
same,"Cell Cycle Distribution, G2 + M","HT29 cells; HT29, 500 μM",45.2 percentage of total
same,"Cell Cycle Distribution, S","HT29 cells; HT29, 500 μM",20.4 percentage of total
same,"Cell Cycle Distribution, sub G","HT29 cells; HT29, 500 μM",8.8 percentage of total
same,Checkpoint remark,"HT29 cells; HT29, 500 μM",G1 abrogation
same,Checkpoint abrogation,HT29 cells,abrogated radiation induced G1 arrest
same,"Cell Cycle Distribution, G1","HL60 cells; HL60, 50 μM",6.1 percentage of total
same,"Cell Cycle Distribution, G2 + M","HL60 cells; HL60, 50 μM",85.5 percentage of total
same,"Cell Cycle Distribution, S","HL60 cells; HL60, 50 μM",2.8 percentage of total
same,"Cell Cycle Distribution, sub G","HL60 cells; HL60, 50 μM",5.9 percentage of total
same,"Cell Cycle Distribution, G1","HL60 cells; HL60, 100 μM",6.1 percentage of total
same,"Cell Cycle Distribution, G2 + M","HL60 cells; HL60, 100 μM",85.4 percentage of total
same,"Cell Cycle Distribution, S","HL60 cells; HL60, 100 μM",3.3 percentage of total
same,"Cell Cycle Distribution, sub G","HL60 cells; HL60, 100 μM",5.5 percentage of total
same,"Cell Cycle Distribution, G1","HL60 cells; HL60, 250 μM",5.4 percentage of total
same,"Cell Cycle Distribution, G2 + M","HL60 cells; HL60, 250 μM",83.9 percentage of total
same,"Cell Cycle Distribution, S","HL60 cells; HL60, 250 μM",2.8 percentage of total
same,"Cell Cycle Distribution, sub G","HL60 cells; HL60, 250 μM",8.1 percentage of total
same,"Cell Cycle Distribution, G1","HL60 cells; HL60, 500 μM",4.4 percentage of total
same,"Cell Cycle Distribution, G2 + M","HL60 cells; HL60, 500 μM",80.0 percentage of total
same,"Cell Cycle Distribution, S","HL60 cells; HL60, 500 μM",4.1 percentage of total
same,"Cell Cycle Distribution, sub G","HL60 cells; HL60, 500 μM",11.8 percentage of total
same,Checkpoint remark,"HL60 cells; HL60, 500 μM",Cell Death
same,Checkpoint abrogation,HL60 cells,abrogated radiation induced G1 arrest
same,IC50,A2780 cells,157 ± 9 µM
